The subject of assay [1] is dengue virus type 2. The assay can be described thus: Functional assay to measure dose dependent changes in antiviral-drug inhibitory efficacy against Dengue virus type 2 New Guinea C in Vero E6 miRFP670 cells (cotreated with P-gp inhibitor, CP100356). Cells are treated with antiviral candidates that are serially diluted, following infection, cells are fixed. EC50 is reported via analysis of fluorescence intensity using high-content imager. The …. The assay is classed as organism-based, Chlorocebus sabaeus, Vero C1008. As to conditions: for EC90: P-gp concentration 500 nM, P-gp inhibitor CP100356.

For assay [2], the system named is Zika virus. Briefly: EC50 is reported via analysis of immunofluorescence staining. The assay has been performed by Icahn School of Medicine at Mount Sinai. The class given is functional, organism-based, Chlorocebus sabaeus, VeroE6/TMPRSS2. Particulars: for EC90: P-gp concentration 2 uM, P-gp inhibitor Elacidar.
Assay [3] deals with Zika virus. Briefly: Functional CPE-based assay to measure dose dependent changes in antiviral-drug inhibitory efficacy against Zika virus MR766 in Vero E6 miRFP670 cells. Cells are treated with antiviral candidates that are serially diluted. EC50 is reported via analysis of MTS assay as a readout of CPE. The assay has been performed by KU Leuven. The class given is organism-based, Chlorocebus sabaeus, Vero C1008. Particulars: Zika virus; for EC50: Vero C1008.

For assay [4], the system named is Zika virus. Briefly: Functional CPE-based assay to measure dose dependent changes in antiviral-drug inhibitory efficacy against Zika virus MR766 in Vero E6 miRFP670 cells (cotreated with P-gp inhibitor, CP100356). Cells are treated with antiviral candidates that are serially diluted. EC50 is reported via analysis of MTS assay as a readout of CPE. The assay has been performed by KU Leuven. As to conditions: for EC90: Baseline response 0 %, Maximum response 100 %, P-gp concentration 500 nM, P-gp inhibitor CP100356. The class given is organism-based, Chlorocebus sabaeus, Vero C1008. A general note: Tetrazolium assays rely on reduction of a dye to a coloured formazan, in cell work by metabolically active cells.

In assay [5] the test system is dengue virus type 2. Briefly: Functional immunofluorescence assay to measure dose dependent changes in antiviral-drug inhibitory efficacy against Dengue virus type 2 Thailand/16681/84 in Vero E6/TMPRSS2 cells (cotreated with P-gp inhibitor, Elacridar). Cells are treated with antiviral candidates that are serially diluted, following infection, cells are fixed. EC50 is reported via analysis of immunofluorescence staining. The assay has been performed by Icahn School of Medicine at Mount Sinai. Particulars: for EC90: P-gp concentration 2 uM, P-gp inhibitor Elacidar. The assay is classed as organism-based, Chlorocebus sabaeus, VeroE6/TMPRSS2.

Values joined by “and” are separate entries in the source; they are usually repeats but may differ in a detail not shown here. Equal entries are not always repeated. A value given as a limit tells only on which side of the number the result lay.

The term EC90 denotes the concentration needed for an effect of 90%. The term EC50 denotes the concentration needed to bring the measured effect to its halfway point. As for `CC(C)NC(=O)[C@H](Nc1ccc2c(c1)CNC2)c1cc(Cl)cc2[nH]ncc12`, the 90% effect concentration (EC90) is greater than 50 µM in the assay on dengue virus type 2 [1] (Dengue virus, Vero C1008, Maximum measured 125.719 %, Minimum measured 102.313 %); greater than 50 µM with dengue virus type 2 [1] (Dengue virus, Vero C1008, Maximum measured 136.006 %, Minimum measured 106.773 %); greater than 50 µM in the assay with dengue virus type 2 [1] (Dengue virus, Vero C1008, Maximum measured 137.073 %, Minimum measured 93.467 %); greater than 6.25 µM in the assay on dengue virus type 2 [1] (Dengue virus, Vero C1008, Baseline response 0 %, Hill slope 0.455, Maximum measured 96.007 %, Maximum response 100 %, Minimum measured 82.569 %, R squared 0.098); greater than 16.7 µM in the assay on Zika virus [2] (Zika virus, VeroE6/TMPRSS2, Maximum measured 103.391 %, Minimum measured 35.108 %); greater than 50 µM with Zika virus [3] (Vero C1008, Maximum measured -0.394 %, Minimum measured -3.218 %). Further, the EC90 was greater than 50 µM with Zika virus [4] (Hill slope 0.274, Maximum measured 19.104 %, Minimum measured -8.849 %, R squared 0.058); greater than 50 µM with Zika virus [4] (Hill slope 0.987, Maximum measured 78.474 %, Minimum measured 2.604 %, R squared 0.941); greater than 50 µM with Zika virus [4] (Zika virus, Vero C1008, Hill slope 2.014, Maximum measured 45.209 %, Minimum measured -1.87 %, R squared 0.776). Further, the half-maximal effective concentration (EC50) in the assay on dengue virus type 2 [1] (vero c1008) is greater than 50 µM; in the assay on Zika virus [2] (Zika virus, VeroE6/TMPRSS2), greater than 16.7 µM; in the assay with Zika virus [3], greater than 50 µM; in the assay with Zika virus [4] (vero c1008) it was > 50 µM and 5.7 µM.
Turning to `O=C(Nc1ccc2c(c1)CNC2)c1cccc2[nH]ncc12`, the 50% effective concentration (EC50) with dengue virus type 2 [1] (Dengue virus, Vero C1008) is less than 0.391 µM; with Zika virus [3], less than 0.391 µM; in the assay with dengue virus type 2 [5] (Dengue virus, VeroE6/TMPRSS2) it was greater than 50 µM. The concentration for an effect of 90% (EC90) with dengue virus type 2 [1] (Dengue virus, Vero C1008, Baseline response 0 %, Hill slope 0.492, Maximum measured 128.823 %, Maximum response 100 %, Minimum measured 60.42 %, R squared 0.116) was less than 0.391 µM; in the assay with Zika virus [3] (Vero C1008, Baseline response 0 %, Hill slope -0.113, Maximum measured 48.96 %, Maximum response 100 %, Minimum measured -6.302 %, R squared 0.011), less than 0.391 µM; in the assay on dengue virus type 2 [5] (Dengue virus, VeroE6/TMPRSS2, Maximum measured 158.189 %, Minimum measured 143.688 %) it was greater than 50 µM.
Regarding `O=C(Nc1cc(Cl)cc(C(=O)Nc2cccc(C3CCNCC3)c2)c1)OCc1ccccc1`, the EC50 is 4.04 µM with dengue virus type 2 [1] (Dengue virus, Vero C1008); 3.24 µM in the assay with Zika virus [2] (Zika virus, VeroE6/TMPRSS2); greater than 1.85 µM with Zika virus [2] (veroe6/tmprss2); greater than 50 µM in the assay with Zika virus [3]; 3.24 µM in the assay with dengue virus type 2 [5] (Dengue virus, VeroE6/TMPRSS2); greater than 1.85 µM in the assay on dengue virus type 2 [5] (veroe6/tmprss2). In addition, the concentration for an effect of 90% (EC90) with dengue virus type 2 [1] (Dengue virus, Vero C1008, Baseline response 0 %, EC90 CI (lower) 2.724 uM, EC90 CI (upper) 4.009 uM, Hill slope -10.989, Maximum measured 107.904 %, Maximum response 100 %, Minimum measured 0.838 %, R squared 0.983) was 4.93 µM; in the assay with Zika virus [2] (Zika virus, VeroE6/TMPRSS2, Maximum measured 120.28 %, Minimum measured 106.347 %) it was greater than 1.85 µM; in the assay on Zika virus [2] (Zika virus, VeroE6/TMPRSS2, Baseline response 0 %, Hill slope -10.935, Maximum measured 129.824 %, Maximum response 100 %, Minimum measured 42.275 %, R squared 0.16), greater than 3.33 µM; in the assay on Zika virus [3] (Vero C1008, Maximum measured 1.3 %, Minimum measured -10.726 %), greater than 50 µM; in the assay on dengue virus type 2 [5] (Baseline response 0 %, Hill slope -7.018, Maximum measured 136.667 %, Maximum response 100 %, Minimum measured 60.314 %, R squared 0.441), greater than 1.85 µM; in the assay with dengue virus type 2 [5] (Dengue virus, VeroE6/TMPRSS2, Baseline response 0 %, Hill slope -0.392, Maximum measured 120.272 %, Maximum response 100 %, Minimum measured 45.482 %, R squared 0.27), greater than 3.33 µM.
In the case of `O=C(NS(=O)(=O)C1CC1)c1cc(Cl)ccc1NS(=O)(=O)c1ccc(Oc2ccccc2Cl)cc1`, the EC50 is 44.5 µM in the assay with dengue virus type 2 [1] (Dengue virus, Vero C1008); 45.9 µM in the assay on Zika virus [2] (Zika virus, VeroE6/TMPRSS2); greater than 50 µM in the assay with Zika virus [3]; 42.5 µM in the assay with dengue virus type 2 [5] (Dengue virus, VeroE6/TMPRSS2). In addition, the 90% effect concentration (EC90) in the assay with dengue virus type 2 [1] (Dengue virus, Vero C1008, Baseline response 0 %, Hill slope -56.608, Maximum measured 108.404 %, Maximum response 100 %, Minimum measured 0.137 %, R squared 0.959) is 46.3 µM; in the assay on Zika virus [2] (Zika virus, VeroE6/TMPRSS2, Baseline response 0 %, Hill slope -22.702, Maximum measured 122.036 %, Maximum response 100 %, Minimum measured 12.187 %, R squared 0.505) it was greater than 50 µM; with Zika virus [3] (Vero C1008, Baseline response 0 %, Hill slope 1.706, Maximum measured 45.349 %, Maximum response 100 %, Minimum measured -3.564 %, R squared 0.879), greater than 50 µM; in the assay with dengue virus type 2 [5] (Dengue virus, VeroE6/TMPRSS2, Baseline response 0 %, Hill slope -20.818, Maximum measured 101.748 %, Maximum response 70 %, Minimum measured 2.339 %, R squared 0.5), 47.3 µM.

(Values after ChEMBL document CHEMBL5661943, “ASAP - In vitro antiviral effect” (2024).)
